Assay results published in patent US20110015221A1, “PHARMACEUTICAL COMPOSITION OF VINFLUNINE WHICH IS INTENDED FOR PARENTERAL ADMINISTRATION PREPARATION METHOD THEREOF AND USE OF SAME” (PIERRE FABRE MEDICAMENT, priority 2003, published 2011).
≈ marks a conversion by molar mass, not a printed value. Values belong to the molecule of their own block, whether it stands above or below them.

Key:
[1] = Stability at 25° C.: total amount of vinflunine-related impurities, pulverulent form vs aqueous solution; assay type: physicochemical
From the text: The stability is monitored by observing the changes in the total amount of vinflunine-related impurities present.

Solubility = details: water

Structure (SMILES): CC[C@]12C=CCN3CC[C@@]4(c5cc([C@@]6(C(=O)OC)CC7CC(C(C)(F)F)CN(Cc8c6[nH]c6ccccc86)C7)c(OC)cc5N(C)[C@H]4C(O)(C(=O)OC)[C@@H]1OC(C)=O)[C@@H]32 (stereo partly drawn) [batch 503, 20′,20′-difluoro-3′,4′-dihyrovinorelbine L(+)-tartrate]
- increase of the total amount of vinflunine-related impurities ([1]; after storage for 6 months at 25° C.): 197%
- % impurity relative to 100% of active principle (total vinflunine-related impurities) ([1]; t0): 1.17%
- % impurity relative to 100% of active principle (total vinflunine-related impurities) ([1]; t3 months, storage at 25° C.): 2.75%
- % impurity relative to 100% of active principle (total vinflunine-related impurities) ([1]; t6 months, storage at 25° C.): 3.48%

Structure (SMILES): CC[C@]12C=CCN3CC[C@@]4(c5cc([C@@]6(C(=O)OC)CC7CC(C(C)(F)F)CN(Cc8c6[nH]c6ccccc86)C7)c(OC)cc5N(C)[C@H]4C(O)(C(=O)OC)[C@@H]1OC(C)=O)[C@@H]32 (stereo partly drawn) [vinflunine, 20′,20′-difluoro-3′,4′-dihydrovinorelbine]
- solubility (Solubility): 290 to 330 mg/mL (≈ 355 to 404 mM)

- solubility (Solubility): 1000 mg/mL (≈ 1280 mM)
Structure (SMILES): CCC1=C[C@@H]2CN(C1)Cc1c([nH]c3ccccc13)[C@@](C(=O)OC)(c1cc3c(cc1OC)N(C)[C@H]1[C@@](O)(C(=O)OC)[C@H](OC(C)=O)[C@]4(CC)C=CCN5CC[C@]31[C@@H]54)C2 [vinorelbine]
